The text below walks through data of patent US20170283862A1, “GENETIC TESTING FOR PREDICTING RESISTANCE OF KLEBSIELLA SPECIES AGAINST ANTIMICROBIAL AGENTS” (priority 2014, published 2017).

The subject of the experiment is K. pneumoniae isolates. The experiment can be described thus: Gene dosage effects: AUC of normalized median coverage per gene, resistant vs susceptible isolates. More on the design: unit not given here. As to conditions: best MIC break. As for the experimental part:
Since a potential reason for drug resistance is gene duplication, gene dose dependency was evaluated. For each sample the genomic coverage for each position was determined using BED Tools. Gene ranges were extracted from the reference assemblies NC_009648.gff and NC_016612.gff and the normalized median coverage per gene was calculated. To compare low- and high-resistance isolates the best area under the curve (AUC) value was computed.
To estimate the difference in coverage we calculated AUC values for the normalized median coverage per gene in the two groups.

[1] abbreviates: gene KPN_00957: 1081235-1081342.
Where [2] appears, read: gene KPN_01607: 1784144-1785004.
The mark [3] stands for this setting: gene KPN_01784: 1966562-1967182.
Where [4] appears, read: gene KPN_02272: 2484450-2485832.
Setting [5] is: gene KPN_03336: 3652949-3653470.
The mark [6] stands for this setting: gene KPN_04541: 4973659-4974345.
Setting [7] is: gene KPN_01776: 1957110-1958672.
Setting [8] is: gene KPN_01790: 1972135-1973631.

As to `CC1(C)S[C@@H]2[C@H](NC(=O)[C@H](N)c3ccccc3)C(=O)N2[C@H]1C(=O)O` [Ampicillin], the BEST_BREAK is, setting by setting: under setting [1], 128.1; under setting [2], 128.1.

Consider Amoxicillin/K Clavulanate, for which the BEST_BREAK is listed as 64 under setting [1]; 8 under setting [2]; 32 under setting [3]; 64 under setting [4]; 32 under setting [5]; 32 (gene KPN_04540: 4971080-4973572). Moreover, the BEST_BREAK under setting [6] came out at 32, the BEST_BREAK (gene rmlC: 2715683-2716237) turned out to be 64.1, the BEST_BREAK (gene rmlC: 2723257-2723811) was determined as 64.1 and the BEST_BREAK (gene ygbI: 1783401-1784123) is recorded as 8.

In the case of Ampicillin/Sulbactam, the BEST_BREAK by setting is: under setting [1], 32; under setting [2], 64.1; under setting [7], 64.1; under setting [3], 64.1; under setting [8], 64.1; under setting [6], 64.1. The same compound yielded a BEST_BREAK (gene rmlC: 2723257-2723811) of 64.1, a BEST_BREAK (gene ygbI: 1783401-1784123) of 64.1, a BEST_BREAK (gene ygbJ: 1782199-1783101) of 64.1 and a BEST_BREAK (gene ygbK: 1780922-1782187) of 64.1.

Take Gentamicin: the BEST_BREAK is listed as 2 (gene KPN_00596: 673027-673989); 1 under setting [1]; 1 under setting [2]; 1 under setting [7]; 1 under setting [3].

For Piperacillin/Tazobactam, the BEST_BREAK was determined as 8 under setting [1]; 128 under setting [2]; 128 (gene KPN_01766: 1947966-1948751); 128 (gene KPN_01767: 1948966-1949805); 128 (gene KPN_01772: 1953630-1954052); 64 (gene KPN_01773: 1954090-1955208). Besides, the BEST_BREAK reads like this: under setting [7], 128; under setting [3], 128; under setting [8], 128; under setting [4], 256.1; under setting [5], 256; under setting [6], 64. For the same compound, the BEST_BREAK is, setting by setting: (gene rmlC: 2723257-2723811) 256.1; (gene stbA: 300128-300664) 128; (gene ygbI: 1783401-1784123) 128; (gene ygbJ: 1782199-1783101) 128; (gene ygbK: 1780922-1782187) 128.
